Strand notation (5' to 3'): a small letter for the sugar, then the base; units joined by * are phosphorothioate-linked, units joined directly phosphodiester-linked; [ ] holds rarer units or linkages, { } end groups; capitals alone tell only the bases. k = constrained ethyl (cEt); [5mC] = 5-methylcytosine; d = 2'-deoxy (DNA)
System: Yap1 mRNA
Experiment: Antisense inhibition of human Yap1 in A-431 cells by cEt gapmers, single dose (Example 3, RTS36584)
Assay type: cell-based
Procedure: Modified oligonucleotides were designed to target a Yap1 nucleic acid and were tested for their effect on Yap1 mRNA level in vitro. The modified oligonucleotides were tested in a series of experiments that had similar culture conditions. Cultured A-431 cells at a density of 5,000 cells per well were treated using free uptake with 2,000 nM of modified oligonucleotide. After a treatment period of approximately 48 hours, RNA was isolated from the cells and Yap1 mRNA levels were measured by quantitative real-time RTPCR. Human primer probe set RTS36584 (forward sequence […], designated herein as SEQ ID NO.: 14; reverse sequence […], designated herein as SEQ ID NO.: 15; probe sequence […], designated herein as SEQ ID NO.: 16) was used to measure mRNA levels. Yap1 mRNA levels were normalized to total RNA content, as measured by RIBOGREEN®. Results are presented in the tables below as percent control of the amount of Yap1 mRNA relative to untreated control cells (% UTC). The modified oligonucleotides with percent control values marked with an asterisk (*) target the amplicon region of the primer probe set. Additional assays may be used to measure the potency and efficacy of the modified oligonucleotides targeting the amplicon region.
The newly designed modified oligonucleotides in the Tables below were designed as 3-10-3 cEt gapmers. The gapmers are 16 nucleosides in length, wherein the central gap segment comprises of ten 2′-deoxynucleosides and is flanked by wing segments on the 5′ direction and the 3′ direction comprising three nucleosides each. Each nucleoside in the 5′ wing segment and each nucleoside in the 3′ wing segment has a cEt sugar modification. The internucleoside linkages throughout each gapmer are phosphorothioate (P═S) linkages. All cytosine residues throughout each gapmer are 5-methylcytosines.
“Start site” indicates the 5′-most nucleoside to which the gapmer is targeted in the human gene sequence. “Stop site” indicates the 3′-most nucleoside to which the gapmer is targeted human gene sequence. […] Activity of the modified oligonucleotide may be defined in a different experiment.

[1] = Table 8, A-431 cells, 5,000 cells per well, free uptake, 2,000 nM, approximately 48 hours, RTS36584, normalized to RIBOGREEN, Yap1 mRNA relative to untreated control cells
[2] = Table 13, A-431 cells, 5,000 cells per well, free uptake, 2,000 nM modified oligonucleotide, approx. 48 hours, RTS36584, normalized to RIBOGREEN, Yap1 mRNA relative to untreated control cells
[3] = Table 11, A-431 cells, 5,000 cells per well, free uptake, 2,000 nM oligonucleotide, approx. 48 hours, primer probe set RTS36584, Yap1 mRNA normalized to RIBOGREEN, percent of untreated control
[4] = Table 26, Yap1 mRNA by 3-10-3 cEt gapmers targeting SEQ ID NO.: 1, and 2, percent of untreated control
[5] = Table 28, Yap1 mRNA as percent of untreated control, 3-10-3 cEt gapmers targeting SEQ ID NO.: 1, and 2
[6] = Table 29, Yap1 mRNA as percent of untreated control, 3-10-3 cEt gapmers targeting SEQ ID NO.: 1, and 2

958423 (antisense kG*kA*kT*d[5mC]*dA*dA*d[5mC]*dA*dT*dG*d[5mC]*dT*dA*kA*k[5mC]*kA) [Compound 958423]
YAP1 (% UTC) [1]: 51 % UTC

958750 (antisense kT*kG*kT*dA*dA*dG*dA*dG*dG*dA*dG*dA*d[5mC]*k[5mC]*kA*k[5mC]) [Compound 958750]
YAP1 (% UTC) [2]: 28 % UTC

958644 (antisense kA*kT*kG*dA*dT*d[5mC]*dA*dA*dA*d[5mC]*d[5mC]*dT*dT*kT*kT*k[5mC]) [Compound 958644]
YAP1 (% UTC) (Table 12, A-431 cells, 5,000 cells per well, free uptake, 2,000 nM modified oligonucleotide, approx. 48 hours, RTS36584, normalized to RIBOGREEN, Yap1 mRNA relative to untreated control cells): 5 % UTC

958351 (kT*k[5mC]*kT*d[5mC]*d[5mC]*dG*dA*dG*dT*d[5mC]*d[5mC]*d[5mC]*d[5mC]*kG*k[5mC]*kG; antisense) [Compound 958351]
YAP1 (% UTC) [1]: 67 % UTC

958403 (antisense k[5mC]*kA*kG*dT*dT*dT*dA*dT*dG*dT*dA*dG*dT*kA*kG*kT) [Compound 958403]
YAP1 (% UTC) [1]: 5 % UTC

958608 (antisense kT*kG*kA*dT*dA*dG*dG*d[5mC]*dA*d[5mC]*dA*d[5mC]*d[5mC]*k[5mC]*kA*k[5mC]) [Compound 958608]
YAP1 (% UTC) [3]: 11 % UTC

1075372 (antisense kA*kT*kA*dT*dA*dT*dA*dG*dA*d[5mC]*dT*dT*dG*kA*kG*kA) [compound 1075372]
YAP1 (% UTC) [4]: 27 % UTC

958815 (kG*kG*kG*d[5mC]*dG*dA*dG*dG*dA*dG*dA*d[5mC]*dA*kG*kG*kT; antisense) [Compound 958815]
YAP1 (% UTC) [2]: 16 % UTC

958797 (antisense kA*k[5mC]*kG*dA*dG*d[5mC]*dA*d[5mC]*dA*dG*d[5mC]*dA*d[5mC]*k[5mC]*k[5mC]*kT) [Compound 958797]
YAP1 (% UTC) (Table 10, A-431 cells, 5,000 cells per well, free uptake, 2,000 nM oligonucleotide, approx. 48 hours, primer probe set RTS36584, Yap1 mRNA normalized to RIBOGREEN, percent of untreated control): 13 % UTC

958386 (antisense kG*kG*k[5mC]*dG*d[5mC]*dG*d[5mC]*dG*d[5mC]*dA*dT*dT*dG*kT*kG*k[5mC]) [Compound 958386]
YAP1 (% UTC) [1]: 111 % UTC

1076110 (k[5mC]*kT*kT*dT*dA*d[5mC]*d[5mC]*dT*dA*dA*dA*dT*dG*kT*kT*kG; antisense) [compound 1076110]
YAP1 (% UTC) [5]: 53 % UTC

1074701 (antisense kG*kT*kG*dT*dA*dA*dG*dA*d[5mC]*dA*dA*dG*dT*k[5mC]*kT*kT) [compound 1074701]
YAP1 (% UTC) (Table 27, Yap1 mRNA by 3-10-3 cEt gapmers targeting SEQ ID NO.: 1, and 2, percent of untreated control): 17 % UTC

958576 (kG*kT*kG*dG*d[5mC]*dT*dA*d[5mC]*dT*dG*dG*d[5mC]*dA*kA*kA*kT; antisense) [Compound 958576]
YAP1 (% UTC) (Table 9, A-431 cells, 5,000 cells per well, free uptake, 2,000 nM, approximately 48 hours, RTS36584, normalized to RIBOGREEN, Yap1 mRNA relative to untreated control cells): 53 % UTC

958453 (antisense kG*k[5mC]*k[5mC]*dT*d[5mC]*dA*dT*dG*dG*dG*d[5mC]*dA*d[5mC]*kG*kG*kT) [Compound 958453]
YAP1 (% UTC) [3]: 70 % UTC

958445 (antisense kG*kG*k[5mC]*dT*dA*d[5mC]*dG*d[5mC]*d[5mC]*d[5mC]*dG*dG*dA*k[5mC]*kG*k[5mC]) [Compound 958445]
YAP1 (% UTC) [2]: 63 % UTC

1074741 (kA*kA*kG*dG*dA*d[5mC]*dT*d[5mC]*dT*dT*dA*dG*dG*kT*k[5mC]*kT; antisense) [compound 1074741]
YAP1 (% UTC) (Table 35, Yap1 mRNA as percent of untreated control, 3-10-3 cEt gapmers targeting SEQ ID NO: 1 and 2, single dose): 78 % UTC

1075180 (kT*kA*kT*dT*dA*d[5mC]*dT*dA*d[5mC]*dA*dA*d[5mC]*d[5mC]*kA*kT*kA; antisense) [compound 1075180]
YAP1 (% UTC) [4]: 56 % UTC

1075988 (kA*kA*kT*dT*dA*dA*dG*d[5mC]*dT*dT*d[5mC]*dT*d[5mC]*kT*kA*kG; antisense) [compound 1075988]
YAP1 (% UTC) (Table 34, Yap1 mRNA as percent of untreated control, 3-10-3 cEt gapmers targeting SEQ ID NO: 1 and 2, single dose): 90 % UTC

1074703 (antisense k[5mC]*kG*kG*dT*dG*dT*dA*dA*dG*dA*d[5mC]*dA*dA*kG*kT*k[5mC]) [compound 1074703]
YAP1 (% UTC) [6]: 16 % UTC

1075278 (antisense kT*kA*kT*dA*d[5mC]*dT*dA*dA*d[5mC]*dA*dT*dT*d[5mC]*kA*k[5mC]*kG) [compound 1075278]
YAP1 (% UTC) [5]: 48 % UTC

958448 (antisense kG*k[5mC]*kG*dA*dA*dG*dG*d[5mC]*dG*dG*d[5mC]*dT*dG*k[5mC]*k[5mC]*k[5mC]) [Compound 958448]
YAP1 (% UTC) [3]: 86 % UTC

1074127 (k[5mC]*k[5mC]*kA*d[5mC]*dT*dG*dG*dT*d[5mC]*dT*dG*dG*d[5mC]*kG*kG*k[5mC]; antisense) [compound 1074127]
YAP1 (% UTC) [6]: 57 % UTC
